20 molecules from patent US10364256B2 (GlaxoSmithKline Intellectual Property Development Limited, priority 2015, dated 2019) can be followed below.

Counter-ions that a name gives are not always drawn. Like-named read-outs stand apart in the source and are kept apart here.

One may read the IC50 as the concentration needed to halve the response being measured. Low readings indicate greater potency in that assay, high ones weaker potency in that assay. A word on the EC50: it is the midpoint of the concentration-response curve.

The target of test [1] is T1, Keap1 Kelch domain (321-609) / TAMRA-labeled 16mer NRF2 peptide (ETGE motif) (Homo sapiens, UniProt Q14145).
T1 construct: the Kelch domain (321-609) of Keap1 is used
T1 sequence (Q14145 321-609): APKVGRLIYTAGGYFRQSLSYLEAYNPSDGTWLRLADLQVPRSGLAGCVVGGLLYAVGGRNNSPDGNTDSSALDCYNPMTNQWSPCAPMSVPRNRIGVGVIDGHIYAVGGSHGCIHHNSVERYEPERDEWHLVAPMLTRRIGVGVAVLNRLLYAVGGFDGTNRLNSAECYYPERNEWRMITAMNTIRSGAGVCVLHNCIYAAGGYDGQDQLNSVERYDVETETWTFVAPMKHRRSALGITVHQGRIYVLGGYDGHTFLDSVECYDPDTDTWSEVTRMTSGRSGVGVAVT
The test is described as follows: NRF2-Keap1 FP Assay (Keap1 Kelch fluorescence polarization). Type of test: binding. As to conditions: 20 nM Keap1 (321-609), 8 nM Tamra labeled peptide. A digest of the protocol:
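Compound dilutions (3-fold) were incubated 1 hr at room temperature with 20 nM Keap1 Kelch (321-609) and 8 nM TAMRA-labeled ETGE 16mer peptide. Buffer was 50 mM Tris pH 8.0, 100 mM NaCl, 5 mM MgCl2, 1 mM DTT, 2 mM CHAPS, 0.005% BSA. Fluorescence polarization (mP) was normalized to controls and fitted with a four-parameter equation to give pIC50.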
In general terms: Polarisation of emitted light reports the rotation of a fluorescent probe.

Test [2] has as its target T2, full length Keap1 protein / full length NRF2 protein (Homo sapiens, UniProt Q14145).
T2 construct: full length NRF2 protein and full length Keap1 protein (Keap1 exists a dimer) are used; His
The test is described as follows: NRF2-Keap1 TR-FRET Low Protein Assay. Type of test: binding. Particulars: 1.25 nM Keap1 FlagHis and 2.5 nM biotin-NRF2 added. A digest of the protocol: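 Flag-tagged full-length Keap1 was preincubated with compound (3-fold series) for 2.25 h at 37 °C in Tris pH 8.0/MgCl2/NaCl/BSA/DTT/CHAPS. Biotin-Avi-NRF2 (added at 2.5 nM) was then bound for 1.25 h at 4 °C. Eu-streptavidin/anti-Flag-APC TR-FRET (665/615 nm) was read after 1 h at RT, and pIC50 came from a four-parameter fit.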
(In general: Time-resolved FRET reads energy transfer from a long-lived donor to a nearby acceptor.)

Test [3] deals with NQO1 specific enzyme activity in BEAS-2B cells (marker for NRF2 activation). The test is described as follows: BEAS-2B NQO1 MTT Assay. Particulars: compound incubated 48 hours, read-out: EC50 (NQO1 specific enzyme activity induction). Type of test: cell-based. Put shortly: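 BEAS-2B cells treated with compound for 48 h at 37 °C, then lysed; NQO1 activity in lysates measured kinetically by MTT reduction at A570 over 30 min. pEC50 from 3-parameter fit of ΔOD/min versus log concentration; lysate also taken for Cell Titer Glo.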

T2 sequence (Q14145 whole entry): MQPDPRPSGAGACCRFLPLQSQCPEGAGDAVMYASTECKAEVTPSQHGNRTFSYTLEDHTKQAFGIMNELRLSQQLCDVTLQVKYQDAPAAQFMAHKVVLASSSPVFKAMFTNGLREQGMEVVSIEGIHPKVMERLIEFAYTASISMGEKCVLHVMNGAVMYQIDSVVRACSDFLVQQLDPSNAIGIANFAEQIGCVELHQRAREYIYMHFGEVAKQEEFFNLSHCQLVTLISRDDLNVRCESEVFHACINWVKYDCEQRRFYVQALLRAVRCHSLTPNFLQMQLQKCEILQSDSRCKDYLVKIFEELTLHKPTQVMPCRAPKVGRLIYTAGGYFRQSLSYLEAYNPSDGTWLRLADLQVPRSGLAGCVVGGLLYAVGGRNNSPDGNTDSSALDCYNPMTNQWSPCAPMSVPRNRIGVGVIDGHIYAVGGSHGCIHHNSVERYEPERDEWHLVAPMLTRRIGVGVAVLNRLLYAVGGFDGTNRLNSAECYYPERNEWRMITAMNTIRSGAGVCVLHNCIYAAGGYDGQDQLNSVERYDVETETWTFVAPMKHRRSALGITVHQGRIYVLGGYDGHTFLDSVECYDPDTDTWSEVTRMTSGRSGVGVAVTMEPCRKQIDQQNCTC

For the molecule `CC(Oc1ccc(-c2cccc(-n3ncc(C(=O)O)c3[C@H]3C[C@@H]3c3cn(C)nn3)c2)cc1)C1CCCCC1` (mixture of isomers) [Example 241, 1-(4′-(1-Cyclohexylethoxy)-[1,1′-biphenyl]-3-yl)-5-((1,2-trans)-2-(1-methyl-1H-1,2,3-triazol-4-yl)cyclopropyl)-1H-pyrazole-4-carboxylic Acid], the values for the IC50 in test [1] and in test [2] were more than 10000 nM and more than 100000 nM, respectively. Also, the concentration giving a half-maximal response (EC50) in test [3] (Homo sapiens) is 1000 to 10000 nM.
With `CCC(Oc1cccc(-c2cccc(-n3ncc(C(=O)O)c3[C@H]3C[C@@H]3c3cn(C)nn3)c2)c1)C1CCCCC1` (mixture of isomers) [Example 242], the IC50 in test [1] and in test [2] was 10 to 100 nM each time. For the same molecule, the half-maximal effective concentration (EC50) in test [3] (Homo sapiens) lay in the range of 10 to 100 nM.
`Cn1cc([C@@H]2C[C@H]2c2c(C(=O)O)cnn2-c2cccc(-c3cccc(CN4CCOc5ccccc5C4)c3)c2)nn1` (racemic) [Example 256, 1-(3′-((2,3-Dihydrobenzo[f][1,4]oxazepin-4(5H)-yl)methyl)-[1,1′-biphenyl]-3-yl)-5-(trans-2-(1-methyl-1H-1,2,3-triazol-4-yl)cyclopropyl)-1H-pyrazole-4-carboxylic Acid]: the IC50 in test [1] and in test [2] was 10 to 100 nM throughout. In addition, the 50% effective concentration (EC50) in test [3] (Homo sapiens) was in the range of 1000 to 10000 nM.
Take `CC(Cc1cccc(-c2cccc(-n3ncc(C(=O)O)c3[C@@H]3C[C@H]3c3cn(C)nn3)c2)c1)C1CCCCC1` (single isomer, unassigned) [Example 116e, 1-(3′-((R) or (S)-2-Cyclohexylpropyl)-[1,1′-biphenyl]-3-yl)-5-((1R,2R)-2-(1-methyl-1H-1,2,3-triazol-4-yl)cyclopropyl)-1H-pyrazole-4-carboxylic Acid]: the IC50 in test [1] and in test [2] was 10 to 100 nM each time. Besides, in test [3] (Homo sapiens), the EC50 was in the range of 1 to 10 nM.
With `CC[C@H]1c2ccccc2OCCN1Cc1cccc(-c2cccc(-n3ncc(C(=O)O)c3[C@@H]3C[C@H]3c3cn(C)nn3)c2)c1` (single isomer, unassigned; isomer 1) [Example 122], the half-maximal inhibitory concentration (IC50) is 10 to 100 nM in test [1] and less than 10 nM in test [2]. In test [3], the EC50 was 10 to 100 nM.
As for `CC[C@H]1c2ccccc2OC(C)(C)CN1Cc1cccc(-c2cccc(-n3ncc(C(=O)O)c3[C@@H]3C[C@H]3c3cn(C)nn3)c2)c1` (single isomer, unassigned; isomer 1) [Example 124], the IC50 in test [1] was 10 to 100 nM; in test [2] it was less than 10 nM. Also, in test [3] (Homo sapiens), the EC50 fell in the range of 10 to 100 nM.
Take `C[C@H]1Cc2ccc(Br)cc2S(=O)(=O)N(Cc2cccc(-c3cccc(-n4ncc(C(=O)O)c4[C@@H]4C[C@H]4c4cn(C)nn4)c3)c2)C1` (single isomer, unassigned; isomer 1) [Example 134]: the IC50 in test [1] was 10 to 100 nM; in test [2], less than 10 nM. For the same molecule, the concentration giving a half-maximal response (EC50) in test [3] (Homo sapiens) was in the range of 100 to 1000 nM.
On to `CC[C@H]1c2ccccc2OCCN1Cc1cccc(-c2cccc(-n3ncc(C(=O)O)c3[C@@H]3C[C@H]3c3cn(C)nn3)c2)c1` (single isomer, unassigned; isomer 2) [Example 121], for which the IC50 was 1 to 10 nM in test [1] and less than 10 nM in test [2]. In addition, the concentration for a half-maximal effect (EC50) in test [3] (Homo sapiens) is 10 to 100 nM.
In the same order, the values of `CC[C@@H]1c2ccccc2OC(C)(C)CN1Cc1cccc(-c2cccc(-n3ncc(C(=O)O)c3[C@@H]3C[C@H]3c3cn(C)nn3)c2)c1` (single isomer, unassigned; isomer 2) [Example 125] are 10 to 100 nM, less than 10 nM and 1 to 10 nM.
Consider `C[C@@H]1Cc2ccc(Br)cc2S(=O)(=O)N(Cc2cccc(-c3cccc(-n4ncc(C(=O)O)c4[C@@H]4C[C@H]4c4cn(C)nn4)c3)c2)C1` (single isomer, unassigned; isomer 2) [Example 135], for which the concentration for half-maximal inhibition (IC50) in test [1] and in test [2] was 10 to 100 nM in each case. For the same molecule, in test [3] (Homo sapiens), the EC50 fell in the range of 10 to 100 nM.
Consider `C[C@H](Oc1cccc(-c2cccc(-n3ncc(C(=O)O)c3[C@@H]3C[C@H]3c3cn(C)nn3)c2)c1)C1CCCCC1` [Example 64, 1-(3′-((S)-1-Cyclohexylethoxy)-[1,1′-biphenyl]-3-yl)-5-((1R,2R)-2-(1-methyl-1H-1,2,3-triazol-4-yl)cyclopropyl)-1H-pyrazole-4-carboxylic Acid], for which the results for the IC50 in test [1] and in test [2] were 10 to 100 nM and less than 10 nM, respectively. The EC50 in test [3] (Homo sapiens, BEAS-2B, 48 h) fell in the range of 10 to 100 nM.
In the case of `CC[C@@H]1CN(Cc2cccc(-c3cccc(-n4ncc(C(=O)O)c4[C@@H]4C[C@H]4c4cn(C)nn4)c3)c2)Cc2ccccc2O1` [Example 65, 1-(3′-(((R)-2-Ethyl-2,3-dihydrobenzo[f][1,4]oxazepin-4(5H)-yl)methyl)-[1,1′-biphenyl]-3-yl)-5-((1R,2R)-2-(1-methyl-1H-1,2,3-triazol-4-yl)cyclopropyl)-1H-pyrazole-4-carboxylic Acid], the values for the IC50 in test [1] and in test [2] were 10 to 100 nM and less than 10 nM, respectively. The EC50 in test [3] (Homo sapiens) is 100 to 1000 nM.
On to `C[C@H](Oc1cccc(-c2cccc(-n3ncc(C(=O)O)c3[C@@H]3C[C@H]3c3cn(C)nn3)c2)c1)C1CCCCC1` [Example 68, 1-(3′-((S)-1-Cyclohexylethoxy)-[1,1′-biphenyl]-3-yl)-5-((1R,2R)-2-(1-methyl-1H-1,2,3-triazol-4-yl)cyclopropyl)-1H-pyrazole-4-carboxylate, Sodium salt], for which the results for the IC50 in test [1] and in test [2] were 10 to 100 nM and less than 10 nM, respectively. Besides, the concentration giving a half-maximal response (EC50) in test [3] (Homo sapiens, BEAS-2B, 48 h) lay in the range of 1 to 10 nM.
On to `C[C@H](Oc1cccc(-c2cccc(-n3ncc(C(=O)O)c3[C@@H]3C[C@H]3c3cn(C)nn3)c2)c1)C1CCCCC1` [Example 69, Barium 1-(3′-((S)-1-Cyclohexylethoxy)-[1,1′-biphenyl]-3-yl)-5-((1R,2R)-2-(1-methyl-1H-1,2,3-triazol-4-yl)cyclopropyl)-1H-pyrazole-4-carboxylate Hydroxide], for which the concentration for half-maximal inhibition (IC50) in test [1] was 1 to 10 nM; in test [2], less than 10 nM. In addition, the 50% effective concentration (EC50) in test [3] is less than 1 nM.
Take `C[C@H](Oc1cccc(-c2cccc(-n3ncc(C(=O)O)c3[C@@H]3C[C@H]3c3cn(C)nn3)c2)c1)C1CCCCC1` [Example 70, Calcium 1-(3′-((S)-1-Cyclohexylethoxy)-[1,1′-biphenyl]-3-yl)-5-((1R,2R)-2-(1-methyl-1H-1,2,3-triazol-4-yl)cyclopropyl)-1H-pyrazole-4-carboxylate Hydroxide]: the 50% inhibitory concentration (IC50) was 10 to 100 nM in test [1] and less than 10 nM in test [2]. Moreover, the concentration giving a half-maximal response (EC50) in test [3] (Homo sapiens) is less than 1 nM.
For `C[C@H](Oc1cccc(-c2cccc(-n3ncc(C(=O)O)c3[C@@H]3C[C@H]3c3cn(C)nn3)c2)c1)C1CCCCCC1` [Example 73, 1-(3′-((S)-1-Cycloheptylethoxy)-[1,1′-biphenyl]-3-yl)-5-((1R,2R)-2-(1-methyl-1H-1,2,3-triazol-4-yl)cyclopropyl)-1H-pyrazole-4-carboxylic Acid], the half-maximal inhibitory concentration (IC50) in test [1] is 10 to 100 nM; in test [2], less than 10 nM. Also, in test [3] (Homo sapiens), the EC50 was 1 to 10 nM.
In the same order, the values of `C[C@@H](Oc1cccc(-c2cccc(-n3ncc(C(=O)O)c3[C@@H]3C[C@H]3c3cn(C)nn3)c2)c1)C1CCCCCC1` [Example 74, 1-(3′-((R)-1-Cycloheptylethoxy)-[1,1′-biphenyl]-3-yl)-5-((1R,2R)-2-(1-methyl-1H-1,2,3-triazol-4-yl)cyclopropyl)-1H-pyrazole-4-carboxylic Acid] are 10 to 100 nM, 10 to 100 nM and 10 to 100 nM.
On the same counts, the results for `C[C@H](Oc1cccc(-c2cccc(-n3ncc(C(=O)O)c3[C@@H]3C[C@H]3c3cn(C4CCOCC4)nn3)c2)c1)C1CCCCC1` [Example 95, 1-(3′-((S)-1-Cyclohexylethoxy)-[1,1′-biphenyl]-3-yl)-5-((1R,2R)-2-(1-(tetrahydro-2H-pyran-4-yl)-1H-1,2,3-triazol-4-yl)cyclopropyl)-1H-pyrazole-4-carboxylic Acid] are 10 to 100 nM, less than 10 nM and 1 to 10 nM.
In the same order, the values of `C[C@H](Oc1cccc(-c2cccc(-n3ncc(C(=O)O)c3[C@H]3C[C@@H]3c3cn(C4CCOCC4)nn3)c2)c1)C1CCCCC1` [Example 96] are 1000 to 10000 nM, 100 to 1000 nM and 100 to 1000 nM.
`C[C@H](Oc1cccc(-c2cccc(-n3ncc(C(=O)O)c3[C@@H]3C[C@H]3c3cn(CC(F)(F)F)nn3)c2)c1)C1CCCCC1` [Example 97, 1-(3′-((S)-1-Cyclohexylethoxy)-[1,1′-biphenyl]-3-yl)-5-((1R,2R)-2-(1-(2,2,2-trifluoroethyl)-1H-1,2,3-triazol-4-yl)cyclopropyl)-1H-pyrazole-4-carboxylic acid]: the concentration for half-maximal inhibition (IC50) in test [1] and in test [2] was 10 to 100 nM throughout. Further, the 50% effective concentration (EC50) in test [3] (Homo sapiens) fell in the range of 1 to 10 nM.
